From patent publication US7351857B2, “Methods of using substituted tetralins and indanes” (Janssen Pharmaceutica N.V., priority 2002, dated 2008)

Target: T1, PPARδ (Homo sapiens, UniProt Q03181)
T1 sequence (Q03181 171-441 limits assumed): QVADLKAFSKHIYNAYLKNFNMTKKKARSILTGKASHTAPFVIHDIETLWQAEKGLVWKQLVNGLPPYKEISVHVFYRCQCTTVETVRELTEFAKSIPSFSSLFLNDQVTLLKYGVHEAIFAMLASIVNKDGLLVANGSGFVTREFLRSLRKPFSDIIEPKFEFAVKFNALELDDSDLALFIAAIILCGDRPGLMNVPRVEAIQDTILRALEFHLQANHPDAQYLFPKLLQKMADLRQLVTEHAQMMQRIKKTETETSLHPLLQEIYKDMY
Experiment: Transfection assay for PPARδ receptors (PPAR-Gal4 / Gal4-luciferase reporter in HEK293 cells)
Assay type: cell-based
Settings: bracketed values
Description: HEK293 cells were grown in DMEM/F-12 Media supplemented with 10% FBS and glutamine (GIBCOBRL). The cells were co-transfected with DNA for PPAR-Gal4 receptor and Gal4-Luciferase Reporter using the DMRIE-C Reagent. On the following day, the DNA-containing medium were replaced with 5% Charcoal treated FBS growth medium. After six hours, cells were seeded in 96 well plate and incubated at 37° C. in CO2 incubator overnight. Cells were challenged by test compounds and incubated for 24 hours at 37° C. in 5% CO2 incubator. Luciferase activity was assayed using the Steady-Glo Luciferase Assay Kit from Promega. DMRIE-C Reagent was purchased from GIBCO Cat. No. 10459-014. OPTI-MEM I Reduced Serum Medium was purchased from GIBCO Cat. No. 31985. Steady-Glo Luciferase Assay Kit was obtained from Promega Part# E254B.

EC50	SMILES
> 3 µM	CCN(C(=O)Nc1ccc(C(C)(C)C)cc1)C1CCc2cc(SC(C)(C)C(=O)O)c(OC)cc2C1 (centres unmarked) [Example 49, 2-{6-[3-(4-tert-Butylphenyl)1-ethylureido]-3-methoxy-5,6,7,8-tetrahydronaphthalen-2-ylsulfanyl}-2-methyl propionic acid]

Same assay, conditions: unbracketed values, PPARδ standard FI = 36.1

PPARδ FI (fold induction)	SMILES
0.8	CCCN(C(=O)Nc1cc(C)cc(C)c1)C1Cc2ccc(SC(C)(C)C(=O)O)cc2C1 (centres unmarked) [Example 33, 2-{2-[3-(3,5-Dimethylphenyl)-1-propylureido]indan-5-ylsulfanyl}-2-methylpropionic acid]
2.1	CCN(C(=O)Nc1cccc(OC(F)(F)F)c1)C1Cc2ccc(SC(C)(C)C(=O)O)cc2C1 (centres unmarked) [Example 26, 2-{2-[1-Ethyl-3-(3-trifluoromethoxyphenyl)ureido]indan-5-ylsulfanyl}-2-methylpropionic acid]
1.4	C=CCCCN(C(=O)Nc1ccc(OC(F)(F)F)cc1)C1Cc2ccc(SC(C)(C)C(=O)O)cc2C1 (centres unmarked) [Example 19, 2-Methy-2-{2-[1-pent-4-enyl-3-(4-trifluoromethoxyphenyl)ureido]indan-5-ylsulfanyl}propionic acid]
0.8	CCN(C(=O)Nc1ccc(N(C)C)cc1)C1Cc2ccc(SC(C)(C)C(=O)O)cc2C1 (centres unmarked) [Example 7, 2-{2-[3-(4-Dimethylaminophenyl)-1-ethylureido]indan-5-ylsulfanyl}-2-methylpropionic acid]
5.6	CCCN(C(=O)Nc1ccc(C(F)(F)F)cc1)C1Cc2ccc(SC(C)(C)C(=O)O)cc2C1 (centres unmarked) [Example 35, 2-Methyl-2-{2-[1-propyl-3-(4-trifluoromethylphenyl)ureido]indan-5-ylsulfanyl}-propionic acid]
1.9	CC(C)(Sc1ccc2c(c1)CC(N(CCCC1CCCC1)C(=O)Nc1ccccc1)C2)C(=O)O (centres unmarked) [Example 37, 2-{2-[1-(3-Cyclopentylpropyl)-3-phenylureido]indan-5-ylsulfanyl}-2-methylpropionic acid]
6.0	CCCN(C(=O)Nc1ccc(OC(F)(F)F)cc1)C1CCc2ccc(SC(C)(C)C(=O)O)cc2C1 (centres unmarked) [Example 46, 2-Methyl-2-{7-[1-propyl-3-(4-trifluoromethoxyphenyl)ureido}-5,6,7,8-tetrahydronaphthalen-2-ylsulfanyl}propionic acid]
1.5	CCCN(C(=O)Nc1ccc(OC)cc1)C1Cc2ccc(SC(C)(C)C(=O)O)cc2C1 (centres unmarked) [Example 32, 2-{2-[3-(4-Methoxyphenyl)-1-propylureido]indan-5-ylsulfanyl}-2-methylpropionic acid]
8.2	CC(C)(Sc1ccc2c(c1)CC(N(CCCC1CCCC1)C(=O)Nc1ccc(OC(F)(F)F)cc1)C2)C(=O)O (centres unmarked) [Example 28, 2-{2-[1-(3-Cyclopentylpropyl)-3-(4-trifluoromethoxyphenyl)ureido]indan-5-ylsulfanyl}-2-methylpropionic acid]
1.2	CCCCCCN(C(=O)Nc1ccc(SC(F)(F)F)cc1)C1Cc2ccc(SC(C)(C)C(=O)O)cc2C1 (centres unmarked) [Example 15, 2-Methyl-2-{2-[1-hexyl-3-(4-trifluoromethylsulfanylphenyl)ureido]indan-5-ylsulfanyl}propionic acid]
9.3	CCCCCN(C(=O)Nc1ccc2ccccc2c1)C1Cc2ccc(SC(C)(C)C(=O)O)cc2C1 (centres unmarked) [Example 39, 2-Methyl-2-[2-(3-naphthalen-2-yl-1-pentylureido)indan-5-ylsulfanyl]propionic acid]
4.5	CCN(C(=O)Nc1ccc(OC(F)(F)F)c(Br)c1)C1Cc2ccc(SC(C)(C)C(=O)O)cc2C1 (centres unmarked) [Example 25, 2-{2-[3-(3-Bromo-4-trifluoromethoxyphenyl)-1-ethylureido]indan-5-ylsulfanyl}-2-methylpropionic acid]

Target: T2, PPARγ (Homo sapiens, UniProt P37231)
T2 construct: Following the challenge of the preadipocytes, cells may be lysed with lysis buffer; endogenous in cells; host or cells: preadipocytes
T2 sequence (P37231 1-505): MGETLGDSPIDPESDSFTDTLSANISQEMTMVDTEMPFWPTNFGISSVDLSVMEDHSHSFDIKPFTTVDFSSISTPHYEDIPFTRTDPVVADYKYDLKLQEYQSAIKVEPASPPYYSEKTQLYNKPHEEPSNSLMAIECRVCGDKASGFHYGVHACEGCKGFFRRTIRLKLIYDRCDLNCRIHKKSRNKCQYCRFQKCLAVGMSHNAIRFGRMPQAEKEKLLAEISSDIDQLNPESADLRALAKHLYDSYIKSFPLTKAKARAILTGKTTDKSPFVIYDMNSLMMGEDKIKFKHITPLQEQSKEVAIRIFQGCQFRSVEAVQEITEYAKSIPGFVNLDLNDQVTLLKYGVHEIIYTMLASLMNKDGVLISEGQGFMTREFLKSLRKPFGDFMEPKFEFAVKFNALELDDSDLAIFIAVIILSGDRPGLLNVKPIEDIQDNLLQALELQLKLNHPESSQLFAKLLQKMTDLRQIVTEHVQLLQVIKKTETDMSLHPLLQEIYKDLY
Experiment: aP2 assay for PPAR gamma agonists (bDNA aP2 mRNA in preadipocytes)
Assay type: cell-based
Settings: unbracketed values; PPARγ standard FI = 70.3
Description: The procedure is described in detail in Burris et al., Molecular Endocrinology, 1999, 13:410, which is hereby incorporated by reference in its entirety, and aP2 assay results of agonist intrinsic activity may be presented as fold increase over vehicle in induction of aP2 mRNA production.
Twenty-four hours after the initial seeding of the 96-well plates by hand (around 20,000/well), the differentiation assay may be initiated. Medium may be removed and replaced with 150 μl of differentiation medium containing vehicle (DMSO) or test compounds. Cells may be returned to incubator for 24 hours culture. At the termination of the challenge, medium may be removed and 100 ul of lysis buffer may be added to initiate the bDNA aP2 mRNA assay. The branched DNA assay may be performed according to the manufacturer's protocol (Bayer Diagnostics; Emeryville, Calif.). Result may be expressed as the fold increase of aP2 mRNA production activated over vehicle controls. EC50's and Emax may be determined by non-linear regression with a sigmoidal fit curve.
Following the challenge of the preadipocytes, cells may be lysed with lysis buffer (Bayer Diagnostics) containing the aP2 oligonucleotides. After a 15 minute incubation at 53° C. or 30 minutes at 37° C. incubator, 70 ul of the lysis buffer from each well may be added to a corresponding capture well (preincubated with 70 ul of blocking buffer (Bayer Diagnostics)). The capture plate may be incubated overnight at 53° C. in a plate incubator (Bayer Diagnostics). After this incubation, the bDNA and labeled probes may be annealed as directed by the manufacturer. Following a 30-minute incubation with the luminescent alkaline phosphatase substrate, dioxitane, the luminescence may be quantitated in a Dynex MLX microtiter plate luminometer. Oligonucleotide probes designed to anneal to the aP2 mRNA and function in the bDNA mRNA detection system are designed with ProbeDesigner software (Bayer Diagnostics). This software package analyzes a target sequence of interest with a series of algorithms in order to determine which regions of the sequence can perform as locations for capture, label, or spacer probe annealing. The sequences of the oligonucleotides are as follows: […]

PPARγ FI (fold induction)	SMILES
1.2	CCCCCCN(C(=O)Nc1ccc(C(C)C)cc1)C1Cc2ccc(SC(C)(C)C(=O)O)cc2C1 (centres unmarked) [Example 13, 2-{2-[3-(4-Isopropylphenyl)-1-(hexyl)ureido]indan-5-ylsulfanyl}-2-methylpropionic acid]
6.1	CCCCCN(C(=O)Nc1ccc(C(C)(C)C)cc1)C1Cc2ccc(SC(C)(C)C(=O)O)cc2C1 (centres unmarked) [Example 11, 2-{2-[3-(4-tert-butylphenyl)-1-(pentyl)ureido]indan-5-ylsulfanyl}-2-methylpropionic acid]
0.37	CCCN(C(=O)Nc1ccc(OC(F)(F)F)cc1)C1Cc2ccc(SC(C)(C)C(=O)O)cc2C1 (centres unmarked) [Example 16, 2-Methyl-2-{2-[1-propyl-3-(4-trifluoromethoxyphenyl)ureido]indan-5-ylsulfanyl}propionic acid]
11	CCCCCN(C(=O)Nc1ccc(-c2ccccc2)cc1)C1Cc2ccc(SC(C)(C)C(=O)O)cc2C1 (centres unmarked) [Example 12, 2-[2-(3-Biphenyl-4-yl-1-pentylureido)indan-5-ylsulfanyl]-2-methylpropionic acid]
5.1	CCCCCN(C(=O)Nc1ccc(C(C)C)cc1)C1Cc2ccc(SC(C)(C)C(=O)O)cc2C1 (centres unmarked) [Example 10, 2-{2-[3-(4-Isopropylphenyl)-1-(pentyl)ureido]indan-5-ylsulfanyl}-2-methylpropionic acid]
3.7	CCN(C(=O)Nc1ccc(SC(F)(F)F)cc1)C1Cc2ccc(SC(C)(C)C(=O)O)cc2C1 (centres unmarked) [Example 4, 2-{2-[1-Ethyl-3-(4-trifluoromethylsulfanylphenyl)ureido]indan-5-ylsulfanyl}-2-methylpropionic acid]
0.05	CC(C)CCN(C(=O)Nc1ccc(C(C)C)cc1)C1Cc2ccc(SC(C)(C)C(=O)O)cc2C1 (centres unmarked) [Example 21, 2-{2-[3-(4-Isopropylphenyl)-1-(3-methylbutyl)ureido]indan-5-ylsulfanyl}-2-methylpropionic acid]
0.44	CC(C)CCN(C(=O)Nc1ccc(OC(F)(F)F)cc1)C1Cc2ccc(SC(C)(C)C(=O)O)cc2C1 (centres unmarked) [Example 20, 2-Methyl-2-{2-[1-(3-methylbutyl)-3-(4-trifluoromethoxyphenyl)ureido]indan-5-ylsulfanyl}-2-methylpropionic acid]
0.31	CC(C)(Sc1ccc2c(c1)CC(NC(=O)Nc1ccc(OC(F)(F)F)cc1)C2)C(=O)O (centres unmarked) [Example 18, 2-Methyl-2-{2-[3-(4-trifluoromethoxyphenyl)ureido]indan-5-ylsulfanyl}propionic acid]
0.43	CCCCN(C(=O)Nc1ccc(SC(F)(F)F)cc1)C1Cc2ccc(SC(C)(C)C(=O)O)cc2C1 (centres unmarked) [Example 17, 2-Methyl-2-{2-[1-butyl-3-(4-trifluoromethylsulfanylphenyl)ureido]indan-5-ylsulfanyl}propionic acid]
